Results on 13 molecules are retold here after patent EP0319228A2, “Novel compounds” (BEECHAM GROUP PLC, priority 1987, dated 1989).

Values after ≈ are worked out from the molar mass of the structure shown.

The test system of one assay is herpes simplex virus 1 (HSV-1; strain HFEM). Kind of assay: Plaque reduction test for herpes simplex virus 1. The assay is classed as cell-based. Particulars: Human alphaherpesvirus 1, Vero, read-out: IC₅₀ Herpes Simplex virus Type 1 HFEM strain in Vero cells. The method, then: (§1) Cells (Vero or MRC-5) were grown to confluence in 24 well multi-dishes (well diameter = 1.5cm). The drained cell monolayers were each infected with approximately 50 infectious particles of herpes simplex virus 1 (HSV-1; strain HFEM) or herpes simplex virus 2 (HSV-2; strain MS) in 100µl of phosphate-buffered saline. The virus was absorbed for 1 hour at room temperature. After adsorption, residual inoculum was removed from each well and replaced with 0.5ml of Eagle's MEM containing 5% newborn calf serum and 0.9% agarose (A37). Once the agarose had set, dilutions of the test compound, which had been prepared in Eagle's MEM (containing 5% newborn calf serum), were added, each well receiving 0.5ml of liquid overlay. The test compound was diluted to give the following series of concentrations: 200, 60, 20, 6....0.06µg/ml; final concentrations in the assay ranged, therefore, between 100µg/ml and 0.03µg/ml. The infected cultures were incubated at 37°C in a humidified atmosphere of 5% CO₂ until plaques were clearly visible (2 or 3 days for Vero cells, usually […] for MRC-5 cells).
(§2) Cultures from 1 and 2 were fixed in formol saline, the agarose overlays were carefully washed off, and then the cell monolayers were stained with carbol fuchsin. A stereo microscope was used to count plaques. The IC₅₀ (concentration of drug which inhibits the number of plaques formed by 50% relative to the number of plaques observed in virus control monolayers) of the test compound was calculated. In addition, the monolayers were examined for evidence of drug-induced cytotoxicity; the minimum concentration at which cytotoxicity occurs was recorded.
A general note: Plaque reduction counts the foci of infection that form in a cell layer.
For `CCOP(=O)(COCCOn1cnc2c(N)ncnc21)OCC` [Example 1, 9-[2-(Diethoxyphosphorylmethoxy)ethoxy]adenine], the IC50 is over 100 µg/mL.

As for `CCOP(=O)(COCCOn1cnc2c(=O)[nH]c(N)nc21)OCC` [Example 3, 9-[2-(Diethoxyphosphorylmethoxy)ethoxy]guanine], the IC50 is over 100 µg/mL.

As for `CCOP(=O)(O)COCCOn1cnc2c(=O)[nH]c(N)nc21` [Example 5, 9-[2-[Ethoxy(hydroxy)phosphorylmethoxy)ethoxy]guanine], the IC50 is 59 µg/mL (≈ 177 µM).

On to `CCOP(=O)(O)COC(CO)COn1cnc2c(N)ncnc21` (centres unmarked) [Example 8, 9-[2-[ethoxy(hydroxy)phosphorylmethoxy]-3-hydroxypropoxy]adenine], for which the IC50 was over 100 µg/mL.

`CCOP(=O)(COCCOn1cnc2c(N)nc(N)nc21)OCC` [Example 11, 2,6-Diamino-9-[2-(diethoxyphosphorylmethoxy)ethoxy]purine]: the IC50 is over 100 µg/mL.

The assay is the same for the next values; noted with them: Human alphaherpesvirus 1; plaque reduction, HFEM strain, Vero cells; read-out: IC₅₀ Herpes Simplex virus Type 1 HFEM strain in Vero cells.
With `Nc1ncnc2c1ncn2OCCOCP(=O)(O)O` [Example 2, 9-[2-(Phosphonemethoxy)ethoxy]adenine], the IC50 was over 100 µg/mL.

Turning to `Nc1nc2c(ncn2OCCOCP(=O)(O)O)c(=O)[nH]1` [Example 4, 9-[2-(Phosphonomethoxy)ethoxy]guanine], the IC50 was 1.1 µg/mL (≈ 3.6 µM).

With `Nc1ncnc2c1ncn2OCC(CO)OCP(=O)(O)O` (centres unmarked) [Example 7, 9-[3-Hydroxy-2-(phosphonomethoxy)propoxy]adenine], the IC50 was over 100 µg/mL.

`Nc1nc2c(ncn2OCC(CO)OCP(=O)(O)O)c(=O)[nH]1` (centres unmarked) [Example 10, 9-[3-Hydroxy-2-(phosphonomethoxy)propoxy]guanine]: the IC50 worked out at 17 µg/mL (≈ 50.7 µM).

In the case of `Nc1nc(N)c2ncn(OCCOCP(=O)(O)O)c2n1` [Example 12, 2,6-Diamino-9-[2-phosphonomethoxy)ethoxy]purine], the IC50 worked out at 24 µg/mL (≈ 78.9 µM).

For `Nc1nc(Cl)c2ncn(OCCOCP(=O)(O)O)c2n1` [Example 13, 2-Amino-6-chloro-9-[2-(phosphonomethoxy)ethoxy]purine], the IC50 was found to be 3.7 µg/mL (≈ 11.4 µM).

With `COc1nc(N)nc2c1ncn2OCCOCP(=O)(O)O` [Example 14, 2-Amino-6-methoxy-9-[2-(phosphonomethoxy)ethoxy]purine], the IC50 was under 3 µg/mL.

For the molecule `Nc1nc2c(ncn2OCC2COP(=O)(O)CO2)c(=O)[nH]1` (centres unmarked) [Example 15, 9-[(2-Hydroxy-2-oxo-1,4,2-dioxaphosphorinan-5-yl)methoxy]guanine], the IC50 stood at 29 µg/mL (≈ 91.4 µM).

In another assay the test system is herpes simplex virus 2 (HSV-2; strain MS). Kind of assay: Plaque reduction test for herpes simplex virus 2. The format is cell-based. As to conditions: Human alphaherpesvirus 2, MRC5, read-out: IC₅₀ Herpes Simplex virus Type 2 MS strain in MRC-5 cells. The method, then: as §1, §2
For the molecule `CCOP(=O)(COCCOn1cnc2c(N)ncnc21)OCC` [Example 1, 9-[2-(Diethoxyphosphorylmethoxy)ethoxy]adenine], the IC50 is over 100 µg/mL.

As for `CCOP(=O)(COCCOn1cnc2c(=O)[nH]c(N)nc21)OCC` [Example 3, 9-[2-(Diethoxyphosphorylmethoxy)ethoxy]guanine], the IC50 was over 100 µg/mL.

With `CCOP(=O)(O)COC(CO)COn1cnc2c(N)ncnc21` (centres unmarked) [Example 8, 9-[2-[ethoxy(hydroxy)phosphorylmethoxy]-3-hydroxypropoxy]adenine], the IC50 was over 100 µg/mL.

Still in this assay, the particulars now being: Human alphaherpesvirus 2, MRC5; plaque reduction, MS strain, MRC-5 cells; read-out: IC₅₀ Herpes Simplex virus Type 2 MS strain in MRC-5 cells.
For the molecule `Nc1ncnc2c1ncn2OCCOCP(=O)(O)O` [Example 2, 9-[2-(Phosphonemethoxy)ethoxy]adenine], the IC50 was 69 µg/mL (≈ 239 µM).

As to `Nc1nc2c(ncn2OCCOCP(=O)(O)O)c(=O)[nH]1` [Example 4, 9-[2-(Phosphonomethoxy)ethoxy]guanine], the IC50 came to 0.08 µg/mL (≈ 0.262 µM).

Regarding `Nc1ncnc2c1ncn2OCC(CO)OCP(=O)(O)O` (centres unmarked) [Example 7, 9-[3-Hydroxy-2-(phosphonomethoxy)propoxy]adenine], the IC50 is over 100 µg/mL.

With `Nc1nc2c(ncn2OCC(CO)OCP(=O)(O)O)c(=O)[nH]1` (centres unmarked) [Example 10, 9-[3-Hydroxy-2-(phosphonomethoxy)propoxy]guanine], the IC50 was 7.3 µg/mL (≈ 21.8 µM).

For another assay, the system named is varicella zoster virus (VZV; Ellen strain). The assay is described as follows: Plaque reduction test for varicella zoster virus. The format is cell-based. Particulars: Human alphaherpesvirus 3, MRC5, read-out: IC₅₀ Varicella Zoster virus Ellen strain in MRC-5 cells. The method, then: MRC-5 cells were grown to confluence in 24 well multi-dishes (well diameter = 1.5cm). The drained cell monolayers were each infected with approximately 50 infectious particles of varicella zoster virus (VZV; Ellen strain) in 100µl of phosphate-buffered saline. The virus was adsorbed for 1 hour at room temperature. After adsorption, residual inoculum was removed from each well and replaced with 0.5ml of Eagles's MEM containing 5% […] foetal calf serum and 0.9% agarose (A37). Once the agarose had set, dilutions of the test compound, which had been prepared in Eagle's MEM (containing 5% heat-inactivated foetal calf serum), were added, each well receiving 0.5ml of liquid overlay. The test compound was diluted to give the following series of concentrations: 200, 60, 20, 6....0.06µg/ml; final concentrations in the assay ranged, therefore, between 100µg/ml and 0.03µg/ml. The infected cultures were incubated at 37°C in a humidified atmosphere of 5% CO₂ until plaques were clearly visible (5 or 6 days).
as §2
For the molecule `CCOP(=O)(COCCOn1cnc2c(N)ncnc21)OCC` [Example 1, 9-[2-(Diethoxyphosphorylmethoxy)ethoxy]adenine], the IC50 is over 100 µg/mL.

Turning to `CCOP(=O)(COCCOn1cnc2c(=O)[nH]c(N)nc21)OCC` [Example 3, 9-[2-(Diethoxyphosphorylmethoxy)ethoxy]guanine], the IC50 stood at 51 µg/mL (≈ 141 µM).

As for `CCOP(=O)(O)COCCOn1cnc2c(=O)[nH]c(N)nc21` [Example 5, 9-[2-[Ethoxy(hydroxy)phosphorylmethoxy)ethoxy]guanine], the IC50 was under 3 µg/mL.

As to `CCOP(=O)(O)COC(CO)COn1cnc2c(N)ncnc21` (centres unmarked) [Example 8, 9-[2-[ethoxy(hydroxy)phosphorylmethoxy]-3-hydroxypropoxy]adenine], the IC50 was determined as 60 µg/mL (≈ 173 µM).

As to `CCOP(=O)(COCCOn1cnc2c(N)nc(N)nc21)OCC` [Example 11, 2,6-Diamino-9-[2-(diethoxyphosphorylmethoxy)ethoxy]purine], the IC50 was over 100 µg/mL.

The assay is the same for the next values; noted with them: Human alphaherpesvirus 3, MRC5; plaque reduction, Ellen strain, MRC-5 cells; read-out: IC₅₀ Varicella Zoster virus Ellen strain in MRC-5 cells.
Consider `Nc1ncnc2c1ncn2OCCOCP(=O)(O)O` [Example 2, 9-[2-(Phosphonemethoxy)ethoxy]adenine], for which the IC50 worked out at 80 µg/mL (≈ 277 µM).

`Nc1nc2c(ncn2OCCOCP(=O)(O)O)c(=O)[nH]1` [Example 4, 9-[2-(Phosphonomethoxy)ethoxy]guanine]: the IC50 stood at 0.06 µg/mL (≈ 0.197 µM).

In the case of `Nc1ncnc2c1ncn2OCC(CO)OCP(=O)(O)O` (centres unmarked) [Example 7, 9-[3-Hydroxy-2-(phosphonomethoxy)propoxy]adenine], the IC50 came to 66 µg/mL (≈ 207 µM).

For `Nc1nc2c(ncn2OCC(CO)OCP(=O)(O)O)c(=O)[nH]1` (centres unmarked) [Example 10, 9-[3-Hydroxy-2-(phosphonomethoxy)propoxy]guanine], the IC50 is 21 µg/mL (≈ 62.6 µM).

For the molecule `Nc1nc(N)c2ncn(OCCOCP(=O)(O)O)c2n1` [Example 12, 2,6-Diamino-9-[2-phosphonomethoxy)ethoxy]purine], the IC50 is under 3 µg/mL.

Take `Nc1nc(Cl)c2ncn(OCCOCP(=O)(O)O)c2n1` [Example 13, 2-Amino-6-chloro-9-[2-(phosphonomethoxy)ethoxy]purine]: the IC50 is 0.5 µg/mL (≈ 1.54 µM).

Consider `COc1nc(N)nc2c1ncn2OCCOCP(=O)(O)O` [Example 14, 2-Amino-6-methoxy-9-[2-(phosphonomethoxy)ethoxy]purine], for which the IC50 is under 0.03 µg/mL.

Take `Nc1nc2c(ncn2OCC2COP(=O)(O)CO2)c(=O)[nH]1` (centres unmarked) [Example 15, 9-[(2-Hydroxy-2-oxo-1,4,2-dioxaphosphorinan-5-yl)methoxy]guanine]: the IC50 is under 3 µg/mL.

Another assay concerns visna virus (strain K184). Kind of assay: CPE inhibition test (established monolayer) for lentiviruses. Particulars: Visna-maedi virus, in Ovis aries, read-out: MIC Visna Virus K184 strain in SCP cells. The assay is classed as cell-based. The method, then:
3 x 10⁴ sheep choroid plexus (SCP) cells were plated into individual wells of a 96 well microtitre plate in 100µl of Eagle's MEM with Hanks' salts containing 10% heat inactivated foetal calf serum (FCS). When monolayers had become established (after 1 or 2 days growth) they were washed with 200µl of maintenance medium (Eagle's MEM with Hanks' salts containing 0.5% FCS) and infected with 100µl of visna virus (strain K184) in maintenance medium (20 TCID₅₀/ml). Test samples were diluted with maintenance medium in further 96 well microtitre plates over the range 200-0.06µg/ml by 3-fold dilution steps. 100µl of the diluted samples was then transferred directly onto virus-infected monolayers (final concentration range therefore 100-0.03µg/ml) and incubated at 37°C in a humidified atmosphere containing, 5% CO₂ until virus-induced CPE was maximal in the untreated virus-infected controls (usually 12-14 days). The plates were fixed with formal saline and stained with crystal violet. Virus-induced CPE was then scored microscopically and the minimum concentration of sample giving complete protection of the cell monolayers (MIC) determined.
Consider `CCOP(=O)(COCCOn1cnc2c(N)ncnc21)OCC` [Example 1, 9-[2-(Diethoxyphosphorylmethoxy)ethoxy]adenine], for which the MIC stood at 100 µg/mL (≈ 290 µM).

Take `CCOP(=O)(COCCOn1cnc2c(=O)[nH]c(N)nc21)OCC` [Example 3, 9-[2-(Diethoxyphosphorylmethoxy)ethoxy]guanine]: the MIC is 10 µg/mL (≈ 27.7 µM).

In the case of `CCOP(=O)(O)COC(CO)COn1cnc2c(N)ncnc21` (centres unmarked) [Example 8, 9-[2-[ethoxy(hydroxy)phosphorylmethoxy]-3-hydroxypropoxy]adenine], the MIC is 1 µg/mL (≈ 2.88 µM).

Turning to `CCOP(=O)(COCCOn1cnc2c(N)nc(N)nc21)OCC` [Example 11, 2,6-Diamino-9-[2-(diethoxyphosphorylmethoxy)ethoxy]purine], the MIC came out at 30 µg/mL (≈ 83.3 µM).

The assay is the same for the next values; noted with them: Visna-maedi virus; minimum concentration giving complete protection of the cell monolayers from virus-induced CPE; sheep choroid plexus (SCP) cells; read-out: MIC Visna Virus K184 strain in SCP cells.
With `Nc1ncnc2c1ncn2OCCOCP(=O)(O)O` [Example 2, 9-[2-(Phosphonemethoxy)ethoxy]adenine], the MIC was 3 µg/mL (≈ 10.4 µM).

With `Nc1nc2c(ncn2OCCOCP(=O)(O)O)c(=O)[nH]1` [Example 4, 9-[2-(Phosphonomethoxy)ethoxy]guanine], the MIC was under 0.003 µg/mL.

`Nc1ncnc2c1ncn2OCC(CO)OCP(=O)(O)O` (centres unmarked) [Example 7, 9-[3-Hydroxy-2-(phosphonomethoxy)propoxy]adenine]: the MIC was found to be 0.3 µg/mL (≈ 0.94 µM).

`Nc1nc2c(ncn2OCC(CO)OCP(=O)(O)O)c(=O)[nH]1` (centres unmarked) [Example 10, 9-[3-Hydroxy-2-(phosphonomethoxy)propoxy]guanine]: the MIC was under 0.003 µg/mL.

`Nc1nc(N)c2ncn(OCCOCP(=O)(O)O)c2n1` [Example 12, 2,6-Diamino-9-[2-phosphonomethoxy)ethoxy]purine]: the MIC is 0.3 µg/mL (≈ 0.986 µM).

`Nc1nc(Cl)c2ncn(OCCOCP(=O)(O)O)c2n1` [Example 13, 2-Amino-6-chloro-9-[2-(phosphonomethoxy)ethoxy]purine]: the MIC was under 0.03 µg/mL.

On to `COc1nc(N)nc2c1ncn2OCCOCP(=O)(O)O` [Example 14, 2-Amino-6-methoxy-9-[2-(phosphonomethoxy)ethoxy]purine], for which the MIC was under 0.03 µg/mL.
